Laboratory results: the NIST ThermoML archive (doi:10.1016/j.jct.2015.01.004)
“And” between values parts separate entries of the source, which are not always exact repeats. Equal entries are not always repeated. Numbers after ± are expanded uncertainties.

Assay: molar heat capacity at constant pressure; xn = mol fraction of the nth substance listed
Conditions: 100 kPa

[Si] [silicon] + [Li]
Conditions | molar heat capacity at constant pressure
213.05 K, Crystal of intercomponent compound 2, relaxation calorimeter, x2 = 0.804 | 19.41 ± 0.79 J/K/mol
217.1 K, Crystal of intercomponent compound 2, relaxation calorimeter, x2 = 0.804 | 19.42 ± 0.79 J/K/mol
217.11 K, Crystal of intercomponent compound 1, relaxation calorimetry, x2 = 0.81 | 19.04 ± 0.77 J/K/mol
217.12 K, Crystal of intercomponent compound 2, relaxation calorimeter, x2 = 0.804 | 19.59 ± 0.8 J/K/mol
220 K, Crystal of intercomponent compound 1, relaxation calorimetry + DSC, x2 = 0.81 | 19.27 ± 0.78 J/K/mol
220 K, Crystal of intercomponent compound 2, relaxation calorimetry + DSC, x2 = 0.804 | 19.69 ± 0.8 J/K/mol
221.11 K, Crystal of intercomponent compound 2, relaxation calorimeter, x2 = 0.804 | 19.62 ± 0.8 J/K/mol
221.12 K, Crystal of intercomponent compound 1, relaxation calorimetry, x2 = 0.81 | 19.24 ± 0.78 J/K/mol
221.13 K, Crystal of intercomponent compound 2, relaxation calorimeter, x2 = 0.804 | 19.84 ± 0.81 J/K/mol
225.23 K, Crystal of intercomponent compound 2, relaxation calorimeter, x2 = 0.804 | 19.86 ± 0.81 J/K/mol
225.24 K, Crystal of intercomponent compound 1, relaxation calorimetry, x2 = 0.81 | 19.46 ± 0.79 J/K/mol
225.25 K, Crystal of intercomponent compound 2, relaxation calorimeter, x2 = 0.804 | 20.03 ± 0.81 J/K/mol
229.28 K, Crystal of intercomponent compound 2, relaxation calorimeter, x2 = 0.804 | 20.05 ± 0.81 J/K/mol
229.3 K, Crystal of intercomponent compound 1, relaxation calorimetry, x2 = 0.81 | 19.66 ± 0.8 J/K/mol
229.31 K, Crystal of intercomponent compound 2, relaxation calorimeter, x2 = 0.804 | 20.22 ± 0.82 J/K/mol
230 K, Crystal of intercomponent compound 1, relaxation calorimetry + DSC, x2 = 0.81 | 19.74 ± 0.8 J/K/mol
230 K, Crystal of intercomponent compound 2, relaxation calorimetry + DSC, x2 = 0.804 | 20.16 ± 0.82 J/K/mol
233.29 K, Crystal of intercomponent compound 2, relaxation calorimeter, x2 = 0.804 | 20.23 ± 0.82 J/K/mol
233.3 K, Crystal of intercomponent compound 1, relaxation calorimetry, x2 = 0.81 | 19.83 ± 0.81 J/K/mol
233.31 K, Crystal of intercomponent compound 2, relaxation calorimeter, x2 = 0.804 | 20.38 ± 0.83 J/K/mol
237.4 K, Crystal of intercomponent compound 2, relaxation calorimeter, x2 = 0.804 | 20.4 ± 0.83 J/K/mol
237.41 K, Crystal of intercomponent compound 1, relaxation calorimetry, x2 = 0.81 | 20 ± 0.81 J/K/mol
237.43 K, Crystal of intercomponent compound 2, relaxation calorimeter, x2 = 0.804 | 20.54 ± 0.83 J/K/mol
240 K, Crystal of intercomponent compound 1, relaxation calorimetry + DSC, x2 = 0.81 | 20.18 ± 0.82 J/K/mol
240 K, Crystal of intercomponent compound 2, relaxation calorimetry + DSC, x2 = 0.804 | 20.58 ± 0.84 J/K/mol
241.46 K, Crystal of intercomponent compound 2, relaxation calorimeter, x2 = 0.804 | 20.62 ± 0.84 J/K/mol
241.48 K, Crystal of intercomponent compound 1, relaxation calorimetry, x2 = 0.81 | 20.17 ± 0.82 J/K/mol
241.49 K, Crystal of intercomponent compound 2, relaxation calorimeter, x2 = 0.804 | 20.73 ± 0.84 J/K/mol
245.47 K, Crystal of intercomponent compound 2, relaxation calorimeter, x2 = 0.804 | 20.87 ± 0.85 J/K/mol
245.48 K, Crystal of intercomponent compound 1, relaxation calorimetry, x2 = 0.81 | 20.3 ± 0.82 J/K/mol
245.5 K, Crystal of intercomponent compound 2, relaxation calorimeter, x2 = 0.804 | 20.93 ± 0.85 J/K/mol
249.59 K, Crystal of intercomponent compound 2, relaxation calorimeter, x2 = 0.804 | 21 ± 0.85 J/K/mol
249.6 K, Crystal of intercomponent compound 1, relaxation calorimetry, x2 = 0.81 | 20.44 ± 0.83 J/K/mol
249.62 K, Crystal of intercomponent compound 2, relaxation calorimeter, x2 = 0.804 | 21.13 ± 0.86 J/K/mol
250 K, Crystal of intercomponent compound 1, relaxation calorimetry + DSC, x2 = 0.81 | 20.59 ± 0.84 J/K/mol
250 K, Crystal of intercomponent compound 2, relaxation calorimetry + DSC, x2 = 0.804 | 20.99 ± 0.85 J/K/mol
253.66 K, Crystal of intercomponent compound 2, relaxation calorimeter, x2 = 0.804 | 21.14 ± 0.86 J/K/mol
253.67 K, Crystal of intercomponent compound 1, relaxation calorimetry, x2 = 0.81 | 20.58 ± 0.84 J/K/mol
253.68 K, Crystal of intercomponent compound 2, relaxation calorimeter, x2 = 0.804 | 21.27 ± 0.86 J/K/mol
257.65 K, Crystal of intercomponent compound 2, relaxation calorimeter, x2 = 0.804 | 21.3 ± 0.87 J/K/mol
257.66 K, Crystal of intercomponent compound 1, relaxation calorimetry, x2 = 0.81 | 20.7 ± 0.84 J/K/mol
257.68 K, Crystal of intercomponent compound 2, relaxation calorimeter, x2 = 0.804 | 21.42 ± 0.87 J/K/mol
260 K, Crystal of intercomponent compound 1, relaxation calorimetry + DSC, x2 = 0.81 | 20.98 ± 0.85 J/K/mol
260 K, Crystal of intercomponent compound 2, relaxation calorimetry + DSC, x2 = 0.804 | 21.37 ± 0.87 J/K/mol
261.78 K, Crystal of intercomponent compound 1, relaxation calorimetry, x2 = 0.81 | 20.8 ± 0.84 J/K/mol
261.78 K, Crystal of intercomponent compound 2, relaxation calorimeter, x2 = 0.804 | 21.42 ± 0.87 J/K/mol
261.79 K, Crystal of intercomponent compound 2, relaxation calorimeter, x2 = 0.804 | 21.54 ± 0.87 J/K/mol
265.83 K, Crystal of intercomponent compound 2, relaxation calorimeter, x2 = 0.804 | 21.55 ± 0.88 J/K/mol
265.84 K, Crystal of intercomponent compound 1, relaxation calorimetry, x2 = 0.81 | 20.92 ± 0.85 J/K/mol
265.86 K, Crystal of intercomponent compound 2, relaxation calorimeter, x2 = 0.804 | 21.64 ± 0.88 J/K/mol
269.82 K, Crystal of intercomponent compound 2, relaxation calorimeter, x2 = 0.804 | 21.67 ± 0.88 J/K/mol
269.85 K, Crystal of intercomponent compound 1, relaxation calorimetry, x2 = 0.81 | 21.06 ± 0.86 J/K/mol
269.85 K, Crystal of intercomponent compound 2, relaxation calorimeter, x2 = 0.804 | 21.75 ± 0.88 J/K/mol
270 K, Crystal of intercomponent compound 1, relaxation calorimetry + DSC, x2 = 0.81 | 21.36 ± 0.87 J/K/mol
270 K, Crystal of intercomponent compound 2, relaxation calorimetry + DSC, x2 = 0.804 | 21.73 ± 0.88 J/K/mol
273.88 K, Crystal of intercomponent compound 2, relaxation calorimeter, x2 = 0.804 | 21.84 ± 0.89 J/K/mol
273.9 K, Crystal of intercomponent compound 1, relaxation calorimetry, x2 = 0.81 | 21.15 ± 0.86 J/K/mol
273.91 K, Crystal of intercomponent compound 2, relaxation calorimeter, x2 = 0.804 | 21.9 ± 0.89 J/K/mol
278.02 K, Crystal of intercomponent compound 1, relaxation calorimetry, x2 = 0.81 | 21.25 ± 0.86 J/K/mol
278.02 K, Crystal of intercomponent compound 2, relaxation calorimeter, x2 = 0.804 | 21.93 ± 0.89 J/K/mol
278.04 K, Crystal of intercomponent compound 2, relaxation calorimeter, x2 = 0.804 | 22 ± 0.89 J/K/mol
280 K, Crystal of intercomponent compound 1, relaxation calorimetry + DSC, x2 = 0.81 | 21.72 ± 0.88 J/K/mol
280 K, Crystal of intercomponent compound 2, relaxation calorimetry + DSC, x2 = 0.804 | 22.09 ± 0.9 J/K/mol
282.07 K, Crystal of intercomponent compound 2, relaxation calorimeter, x2 = 0.804 | 22.06 ± 0.9 J/K/mol
282.08 K, Crystal of intercomponent compound 1, relaxation calorimetry, x2 = 0.81 | 21.37 ± 0.87 J/K/mol
282.09 K, Crystal of intercomponent compound 2, relaxation calorimeter, x2 = 0.804 | 22.11 ± 0.9 J/K/mol
284.87 K, Crystal of intercomponent compound 1, Small sample (50 mg) DSC, x2 = 0.81 | 22.13 ± 0.54 J/K/mol and 22.16 ± 0.54 J/K/mol
284.87 K, Crystal of intercomponent compound 2, Small sample (50 mg) DSC, x2 = 0.804 | 22.41 ± 0.55 J/K/mol
286.06 K, Crystal of intercomponent compound 2, relaxation calorimeter, x2 = 0.804 | 22.16 ± 0.9 J/K/mol
286.08 K, Crystal of intercomponent compound 1, relaxation calorimetry, x2 = 0.81 | 21.42 ± 0.87 J/K/mol
286.08 K, Crystal of intercomponent compound 2, relaxation calorimeter, x2 = 0.804 | 22.26 ± 0.9 J/K/mol
290 K, Crystal of intercomponent compound 1, relaxation calorimetry + DSC, x2 = 0.81 | 22.08 ± 0.9 J/K/mol
290 K, Crystal of intercomponent compound 2, relaxation calorimetry + DSC, x2 = 0.804 | 22.45 ± 0.91 J/K/mol
290.12 K, Crystal of intercomponent compound 1, relaxation calorimetry, x2 = 0.81 | 21.52 ± 0.87 J/K/mol
290.13 K, Crystal of intercomponent compound 2, relaxation calorimeter, x2 = 0.804 | 22.36 ± 0.91 J/K/mol
294.26 K, Crystal of intercomponent compound 1, relaxation calorimetry, x2 = 0.81 | 21.6 ± 0.88 J/K/mol
294.27 K, Crystal of intercomponent compound 2, relaxation calorimeter, x2 = 0.804 | 22.5 ± 0.91 J/K/mol
294.79 K, Crystal of intercomponent compound 2, Small sample (50 mg) DSC, x2 = 0.804 | 22.86 ± 0.56 J/K/mol
294.8 K, Crystal of intercomponent compound 1, Small sample (50 mg) DSC, x2 = 0.81 | 22.38 ± 0.55 J/K/mol and 22.54 ± 0.55 J/K/mol
298.15 K, Crystal of intercomponent compound 1, relaxation calorimetry + DSC, x2 = 0.81 | 22.38 ± 0.91 J/K/mol
